Assay results: US12227495B2, “Herbicidal compounds” (SYNGENTA CROP PROTECTION AG, priority 2018, dated 2025)

Legend:
Format in all cases: in vivo
[1] = test system: Amaranthus retoflexus (AMARE); test: Post-emergence herbicide test, glasshouse, percentage damage; conditions: 1000 g/ha, evaluated after 13 days
Procedure, shortened: (§1)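 Pot-grown plants were sprayed at 500 g/ha unless otherwise stated, in acetone/water (50:50) with 0.5% Tween 20. Pre-emergence spraying was 1 day after sowing and post-emergence after 8 days, in a glasshouse at 24/16° C, 14 h light, 65% humidity. Percentage damage was scored 13 days later on a 1–5 scale (5=81-100%).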

[2] = test system: Echinochloa crus-galli (ECHCG); test: as above; conditions: 1000 g/ha, evaluated after 13 days
Procedure, shortened: as §1

[3] = test system: Ipomoea hederacea (IPOHE); test: as above; conditions: 1000 g/ha, evaluated after 13 days
Procedure, shortened: as §1

[4] = test system: Lolium perenne (LOLPE); test: as above; conditions: 1000 g/ha, evaluated after 13 days
Procedure, shortened: as §1

[5] = test system: Setaria faberi (SETFA); test: as above; conditions: 1000 g/ha, evaluated after 13 days
Procedure, shortened: as §1

[6] = test system: Solanum nigrum (SOLNI); test: as above; conditions: 1000 g/ha, evaluated after 13 days
Procedure, shortened: as §1

[7] = test system: Amaranthus retoflexus (AMARE); test: Pre-emergence herbicide test, glasshouse, percentage damage; conditions: rate 1000 g/ha, evaluated after 13 days
Procedure, shortened: as §1

[8] = test system: Echinochloa crus-galli (ECHCG); test: as above; conditions: rate 1000 g/ha, evaluated after 13 days
Procedure, shortened: as §1

[9] = test system: Ipomoea hederacea (IPOHE); test: as above; conditions: rate 1000 g/ha, evaluated after 13 days
Procedure, shortened: as §1

[10] = test system: Lolium perenne (LOLPE); test: as above; conditions: rate 1000 g/ha, evaluated after 13 days
Procedure, shortened: as §1

[11] = test system: Setaria faberi (SETFA); test: as above; conditions: rate 1000 g/ha, evaluated after 13 days
Procedure, shortened: as §1

[12] = test system: Solanum nigrum (SOLNI); test: as above; conditions: rate 1000 g/ha, evaluated after 13 days
Procedure, shortened: as §1

Compound	percentage damage caused to the plant, AMARE [1]	percentage damage caused to the plant, ECHCG [2]	percentage damage caused to the plant, IPOHE [3]	percentage damage caused to the plant, LOLPE [4]	percentage damage caused to the plant, SETFA [5]	percentage damage caused to the plant, SOLNI [6]	Pre-emergence Test AMARE percentage damage (five point scale) [7]	Pre-emergence Test ECHCG percentage damage (five point scale) [8]	Pre-emergence Test IPOHE percentage damage (five point scale) [9]	Pre-emergence Test LOLPE percentage damage (five point scale) [10]	Pre-emergence Test SETFA percentage damage (five point scale) [11]	Pre-emergence Test SOLNI percentage damage (five point scale) [12]
O=[N+]([O-])c1ccc(Oc2cccc(Br)c2-c2cc(C(F)F)no2)nc1 [Compound A88]	5 (5=81-100%)	4 (4=61-80%)	2 (2=21-40%)	3 (3=41-60%)	4 (4=61-80%)	4 (4=61-80%)	5 (5=81-100%)	5 (5=81-100%)	1 (1=0-20%)	4 (4=61-80%)	5 (5=81-100%)	4 (4=61-80%)
FC(F)c1cc(-c2c(Br)cccc2Oc2ncc(Cl)cc2Cl)on1 [Compound A89]	5 (5=81-100%)	4 (4=61-80%)	4 (4=61-80%)	3 (3=41-60%)	5 (5=81-100%)	4 (4=61-80%)	4 (4=61-80%)	4 (4=61-80%)	3 (3=41-60%)	2 (2=21-40%)	4 (4=61-80%)	2 (2=21-40%)
FC(F)c1cc(-c2c(Br)cccc2Oc2ccc(C(F)(F)F)cn2)on1 [Compound A90]	5 (5=81-100%)	4 (4=61-80%)	4 (4=61-80%)	4 (4=61-80%)	5 (5=81-100%)	4 (4=61-80%)	4 (4=61-80%)	5 (5=81-100%)	3 (3=41-60%)	5 (5=81-100%)	5 (5=81-100%)	4 (4=61-80%)
N#Cc1ccnc(Oc2cccc(Cl)c2-c2cc(C(F)F)no2)c1 [Compound A91]	4 (4=61-80%)	4 (4=61-80%)	4 (4=61-80%)	4 (4=61-80%)	4 (4=61-80%)	4 (4=61-80%)	4 (4=61-80%)	5 (5=81-100%)	4 (4=61-80%)	4 (4=61-80%)	5 (5=81-100%)	3 (3=41-60%)
FC(F)c1cc(-c2c(Cl)cccc2Oc2cc(Cl)ccn2)on1 [Compound A92]	4 (4=61-80%)	4 (4=61-80%)	4 (4=61-80%)	4 (4=61-80%)	4 (4=61-80%)	4 (4=61-80%)	4 (4=61-80%)	1 (1=0-20%)	4 (4=61-80%)	5 (5=81-100%)	5 (5=81-100%)	2 (2=21-40%)
Fc1cc(Cl)cnc1Oc1c(F)cccc1-c1cc(C(F)F)no1 [Compound A93]	5 (5=81-100%)	4 (4=61-80%)	3 (3=41-60%)	3 (3=41-60%)	5 (5=81-100%)	3 (3=41-60%)	4 (4=61-80%)	4 (4=61-80%)	3 (3=41-60%)	3 (3=41-60%)	4 (4=61-80%)	4 (4=61-80%)
